Results: US5770083A, “Separation of polar compounds by affinity countercurrent chromatography” (The United States of America as represented by the …, priority 1995, dated 1998)
Where two headings read alike, the source gives them in different places. Values belong to the molecule of their own block, whether it stands above or below them.

Tests used:
[1] = Partition coefficient (K) in two-phase solvent systems, test tube procedure; format: physicochemical
Method: Each solvent system was prepared by equilibrating the solvent mixture, excluding the ligand, in a separatory funnel at room temperature. After two clear layers were formed, the two phases were separated. Then, a desired amount of the ligand was added to the organic phase which was then used as the stationary phase. The aqueous phase was used as the mobile phase.
Partition coefficients were measured using the standard test tube procedure as follows: The two-phase solvent system was prepared as described above. An aliquot of 2 mL of each phase, a total of 4 mL, was delivered in a test tube (13 mm ID×100 mm length) where a desired amount of the ligand and 1-2 mg of sample were added. Then, the test tube was stoppered and the contents were mixed until the resolved sample was completely equilibrated between two phases. Using a vortex mixer, it required 10 successive applications at a few second intervals after the sample was dissolved in the solvent. The tube was stand still until clear two layers were formed. If necessary, the tubes were centrifuged for 2-3 min at 1000×g to accelerate the phase separation. An aliquot of each phase, usually 100 μl, was separately diluted with 2 mL of a suitable diluent, usually methanol, and the absorbance determined with a spectrophotometer, (Zeiss, Hanover, Md., USA) at a desired wavelength. The partition coefficient for each component was obtained by the absorbance of the upper phase divided by that of the lower phase. […]

[2] = n-butanol/water two-phase solvent systems, no ligand; stated as background; cited from earlier work
[3] = methyl t-butyl ether / 0.1 M KH2PO4 (1:1), ligand DEHPA 10%, upper/lower phase

Molecule: Tyr--Ala
- Partition Coefficient (K) [1, 3]: 0.8

Molecule: CNC[C@H](O)c1ccc(O)c(O)c1 [Epinephrine, epinephrine]
- partition (in words) [2]: almost exclusively into the aqueous phase
- Partition Coefficient (K) ([1]; methyl t-butyl ether / 0.1 M NH4OAc and 0.5 M HCl (1:1), ligand DEHPA 1.5%, upper/lower phase): 0.4
- Partition Coefficient ([1]; solvent system I: nButanol/H2O): 0.24
- Partition Coefficient ([1]; solvent system II: nButanol/0.1M NH4OAc): 0.13
- Partition Coefficient ([1]; solvent system III: MBE/H2O): 0.06
- Partition Coefficient ([1]; solvent system IV: MBE/0.1M NH4OAc): 0.16
- Partition Coefficient ([1]; solvent system V: MBE/DEHPA/0.1M NH4OAc (9:1:10)): 5.83
- Partition Coefficient ([1]; solvent system VI: MBE/DEHPA/0.05M HCl (9:1:10)): 0.01
- Partition Coefficient ([1]; solvent system VII: MBE/DEHPA/0.1M NH4OAc & 0.05M HCl (9:1:10)): 1.42

Molecule: COc1cc(C(O)CN)ccc1O (stereo not shown) [Normetanephrine, normetanephrine]
- Partition Coefficient (K) [1]: 0.5

Molecule: Tyr--Leu
- Partition Coefficient (K) [1, 3]: 18

Molecule: Ala--Tyr
- Partition Coefficient (K) [1, 3]: 0.5

Molecule: Tyr--Gly
- Partition Coefficient (K) [1, 3]: 0.2

Molecule: Leu--Tyr
- Partition Coefficient (K) [1, 3]: 10

Molecule: Gly--Tyr
- Partition Coefficient (K) [1, 3]: 0.1

Molecule: CCCCC(CC)COP(=O)(O)OCC(CC)CCCC (stereo not shown) [DEHPA, di-(2-ethylhexyl)phosphoric acid]
- K value of the ligand ([1]; ligand almost unilaterally distributed into the organic phase, MBE/aqueous systems): > 100

Molecule: Val--Tyr
- Partition Coefficient (K) [1, 3]: 2.8

- Partition Coefficient (K) [1]: 1.7
Molecule: NCCc1ccc(O)cc1 [Tyramine, tyramine]

Molecule: Tyr--Val
- Partition Coefficient (K) [1, 3]: 4.9

- Partition Coefficient (K) [1]: 0.01
- K value (in words) ([1]; Dopa in zwitterionic form, pH-zone-refining run, Example 5): extremely low K value
Molecule: N[C@@H](Cc1ccc(O)c(O)c1)C(=O)O (racemic) [DOPA, 3,4-dihydroxyphenylalanine]
